The values below are quoted from earlier work in patent US20200277251A1, “NOVEL ANTIBACTERIAL COMPOUNDS AND METHODS OF MAKING AND USING SAME” (BROWN UNIVERSITY, priority 2017, published 2020).

This series has as its system LT. The conditions noted are these: purified autolysin; cited from earlier work.

Turning to `CC1=N[C@@H]2[C@@H](O)[C@H](O)[C@@H](CO)O[C@@H]2S1` [NAG-thiazoline], the “binding to LT” value is on record as “weak binder”.
